Where two headings read alike, the source gives them in different places.
Test system: HCV pseudoparticles (genotype 1a HCV E1 and E2 envelope, H77C isolate)
Assay: microbe, parasite or virus in culture
Format: cell-based
Details: Hepatitis C virus
[1] = Huh-7, 48 h, read-out: Activity (EC50 class), HCV pseudoparticle infection of Huh7 cells, luciferase 2 days after infection, EC50 expressed as class A/B
[2] = Huh-7, read-out: Activity (EC50 class), HCV pseudoparticles (genotype 1a, H77C) in Huh7 cells, EC50 expressed as class A/B
[3] = Huh-7, 48 h, read-out: Activity (EC50 class), HCV pseudoparticles, Huh7 cells, luciferase 2 days after infection, average of duplicates
[4] = Huh-7, 48 h, HCV pseudoparticle infection of Huh7 cells, luciferase 2 days after infection, average of duplicates
[5] = Huh-7, 48 h, HCV pseudoparticles (genotype 1a, H77C) in Huh7 cells, average of duplicate, luciferase 2 days after infection

SMILES | EC50 [1] [nM] | EC50 [2] [nM] | further results
COC(=O)[C@H](CNC(=O)C(=O)NC1CCCCC1c1ccccc1)NC(=O)c1ccc(Nc2nc(NC3(c4ccc(Cl)cc4)CC3)nc(OCC(F)(F)F)n2)cc1 (stereo partly shown) [Compound 1305] | 0.01 to 10 | – | –
COc1cc(C)ccc1NC(=O)C(=O)NCC(C)(C)CNC(=O)c1ccc(Nc2nc(NC3(c4ccc(Cl)cc4)CC3)nc(OCC(F)(F)F)n2)cc1 [Compound 3070] | – | 0.01 to 10 | –
O=C(NC/C(=N/C(=O)c1ccc(Nc2nc(NC3(c4ccc(Cl)cc4)CC3)nc(OCC(F)(F)F)n2)cc1)C(=O)O)C(=O)Nc1ccc(-c2nnco2)cc1 [Compound 3161] | – | 0.01 to 10 | –
O=C(NCCCCNC(=O)c1ccc(Nc2nc(NC3(c4ccc(Cl)cc4)CC3)nc(OCC(F)(F)F)n2)cc1)C(=O)NCc1ccc(F)cc1 [Compound 3392] | – | 0.01 to 10 | –
COC(=O)[C@H](CCNC(=O)C(=O)Nc1ccc(OC(F)(F)F)cc1)NC(=O)c1ccc(Nc2nc(NC3(c4ccc(Cl)cc4)CC3)nc(OCC(F)(F)F)n2)cc1 [Compound 3331] | – | 0.01 to 10 | –
CC(C)(CNC(=O)C(=O)Nc1ccc2c(c1)CCCC2=O)CNC(=O)c1ccc(Nc2nc(NC3(c4ccc(Cl)cc4)CC3)nc(OCC(F)(F)F)n2)cc1 [Compound 3263] | – | 0.01 to 10 | –
CCc1cccc(NC(=O)C(=O)NCC[C@H](NC(=O)c2ccc(Nc3nc(NC4(c5ccc(Cl)cc5)CC4)nc(OCC(F)(F)F)n3)cc2)C(=O)O)c1 [Compound 3614] | – | – | EC50 [3]: 0.01 to 10 nM
O=C(NCC[C@H](NC(=O)c1ccc(Nc2nc(NC3(c4ccc(Cl)cc4)CC3)nc(OCC(F)(F)F)n2)cc1)C(=O)O)C(=O)Nc1cccc(-c2c[nH]cn2)c1 [Compound 3656] | – | – | EC50 [3]: 0.01 to 10 nM
COC(=O)[C@H](CNC(=O)C(=O)N[C@@H]1C[C@H]2C[C@@H]([C@H]1C)C2(C)C)NC(=O)c1ccc(Nc2nc(NC3(c4ccc(Cl)cc4)CC3)nc(OCC(F)(F)F)n2)cc1 [Compound 1069] | 0.01 to 10 | – | –
COc1ccc(NC(=O)C(=O)NC[C@H](NC(=O)c2ccc(Nc3nc(NC4(c5ccc(Cl)cc5)CC4)nc(OCC(F)(F)F)n3)cc2)C(=O)O)cc1 [Compound 1362] | 0.01 to 10 | – | EC50 [4]: 0.3 nM
C=Cc1ccc(NC(=O)C(=O)NCC(C)(C)CNC(=O)c2ccc(Nc3nc(NC4(c5ccc(Cl)cc5)CC4)nc(OCC(F)(F)F)n3)cc2)cc1 [Compound 1604] | 0.01 to 10 | – | EC50 [4]: 0.02 nM
COC(=O)[C@H](CNC(=O)C(=O)NCc1cccc(F)c1F)NC(=O)c1ccc(Nc2nc(NC3(c4ccc(Cl)cc4)CC3)nc(OCC(F)(F)F)n2)cc1 [Compound 1148] | 0.01 to 10 | – | –
O=C(NC/C(=N/C(=O)c1ccc(Nc2nc(NC3(c4ccc(Cl)cc4)CC3)nc(OCC(F)(F)F)n2)cc1)C(=O)O)C(=O)Nc1ccc(C2CCCCC2)cc1 [Compound 3147] | – | 0.01 to 10 | –
O=C(NC[C@H](NC(=O)c1ccc(Nc2nc(NC3(c4ccc(Cl)cc4)CC3)nc(OCC(F)(F)F)n2)cc1)C(=O)Cl)C(=O)Nc1cccc(-c2cccnc2)c1 [Compound 3783] | – | – | EC50 [3]: 0.01 to 10 nM
Cc1nnnn1-c1cc(Nc2nc(NC3(c4ccc(Cl)cc4)CC3)nc(OCC(F)(F)F)n2)ccc1C(=O)NCC(C)(C)CNC(=O)C(N)=O [Compound 3519] | – | 0.01 to 10 | –
CC(C)(CNC(=O)C(N)=O)CNC(=O)c1ccc(Nc2nc(NC3(c4ccc(Cl)cc4)CC3)nc(OCC(F)(F)F)n2)c(O)c1 [Compound 3478] | – | 0.01 to 10 | –
CC(C)(CNC(=O)C(=O)Nc1nc2cccnc2s1)CNC(=O)c1ccc(Nc2nc(NC3(c4ccc(Cl)cc4)CC3)nc(OCC(F)(F)F)n2)cc1 [Compound 3811] | – | – | EC50 [3]: 0.01 to 10 nM
NC(=O)C(=O)NCC1(CNC(=O)c2ccc(Nc3nc(NC4(c5ccc(Cl)cc5)CC4)nc(OCC(F)(F)F)n3)cc2)CC1 [Compound 3175] | – | 0.01 to 10 | EC50 [5]: 0.11 nM
Cc1ccc(NC(=O)C(=O)N2CCCC(CNC(=O)c3ccc(Nc4nc(NC5(c6ccc(Cl)cc6)CC5)nc(OCC(F)(F)F)n4)cc3)C2)cc1 (stereo not shown) [Compound 3481] | – | 0.01 to 10 | EC50 [5]: 0.065 nM
CC1(C)CC(NC(=O)C(=O)NC[C@H](NC(=O)c2ccc(Nc3nc(NC4(c5ccc(Cl)cc5)CC4)nc(OCC(F)(F)F)n3)cc2)C(=O)O)CC(C)(C)C1 [Compound 1077] | 0.01 to 10 | – | –
O=C(NC[C@H](NC(=O)c1ccc(Nc2nc(NC3(c4ccc(Cl)cc4)CC3)nc(OCC(F)(F)F)n2)cc1)C(=O)O)C(=O)Nc1cccc(-c2ccc(Cl)cc2)c1 [Compound 3775] | – | – | EC50 [3]: 0.01 to 10 nM
O=C(NC[C@H](NC(=O)c1ccc(Nc2nc(NC3(c4ccc(Cl)cc4)CC3)nc(OCC(F)(F)F)n2)cc1)C(=O)O)C(=O)Nc1cccc(CN2CCCC2)c1 [Compound 3778] | – | – | EC50 [3]: 0.01 to 10 nM
CC(C)(CNC(=O)C(=O)Nc1ccc(C(=O)c2ccc(NC(=O)CCCCCNC(=O)CCCC[C@H]3SC[C@@H]4NC(=O)N[C@@H]43)cc2)cc1)CNC(=O)c1ccc(Nc2nc(NC3(c4ccc(Cl)cc4)CC3)nc(OCC(F)(F)F)n2)cc1 [Compound 3558] | – | 0.01 to 10 | EC50 [5]: 0.26 nM

SMILES | EC50 [1] [nM] | EC50 [2] [nM] | further results
COC(=O)[C@H](CNC(=O)C(=O)Nc1cccc(C)c1)NC(=O)c1ccc(Nc2nc(NC3(c4ccc(Cl)cc4)CC3)nc(OCC(F)(F)F)n2)cc1 [Compound 3687] | – | – | EC50 [3]: 0.01 to 10 nM
O=C(NCC[C@H](NC(=O)c1ccc(Nc2nc(NC3(c4ccc(Cl)cc4)CC3)nc(OCC(F)(F)F)n2)cc1)C(=O)O)C(=O)NCc1cccc(F)c1 [Compound 1178] | 0.01 to 10 | – | –
O=C(NC[C@H](NC(=O)c1ccc(Nc2nc(NC3(c4ccc(Cl)cc4)CC3)nc(OCC(F)(F)F)n2)cc1)C(=O)O)C(=O)N[C@@H]1C[C@H]1c1ccccc1 [Compound 1406] | 0.01 to 10 | – | –
CC1CCC(NC(=O)C(=O)NCC[C@H](NC(=O)c2ccc(Nc3nc(NC4(c5ccc(Cl)cc5)CC4)nc(OCC(F)(F)F)n3)cc2)C(=O)O)CC1 (stereo partly shown) [Compound 1129] | 0.01 to 10 | – | –
COC(=O)[C@H](CNC(=O)C(=O)Nc1ccc(N2CC(C)NC(C)C2)cc1)NC(=O)c1ccc(Nc2nc(NC3(c4ccc(Cl)cc4)CC3)nc(OCC(F)(F)F)n2)cc1 (stereo partly shown) [Compound 3092] | – | 0.01 to 10 | –
COc1ccc(NC(=O)C(=O)NCC(C)(C)CNC(=O)c2ccc(Nc3nc(NC4(c5ccc(Cl)cc5)CC4)nc(OCC(F)(F)F)n3)cc2)c(OC)c1 [Compound 3067] | – | 0.01 to 10 | –
COC(=O)[C@H](CCNC(=O)C(=O)Nc1cccc(OCc2ccccc2)c1)NC(=O)c1ccc(Nc2nc(NC3(c4ccc(Cl)cc4)CC3)nc(OCC(F)(F)F)n2)cc1 [Compound 3612] | – | – | EC50 [3]: 0.01 to 10 nM
CC(C)(CNC(=O)C(=O)Nc1ccccc1)CNC(=O)c1ccc(Nc2nc(NC3(c4ccc(Cl)cc4)CC3)nc(OCC(F)(F)F)n2)cc1 [Compound 1035, N1-(3-(4-(4-(1-(4-chlorophenyl)cyclopropylamino)-6-(2,2,2-trifluoroethoxy)-1,3,5-triazin-2-ylamino)benzamido)-2,2-dimethylpropyl)-N2-phenyloxalamide] | – | – | EC50 [4]: 0.03 nM
CC(C)(CNC(=O)C(=O)Nc1nc2ccc(S(N)(=O)=O)cc2s1)CNC(=O)c1ccc(Nc2nc(NC3(c4ccc(Cl)cc4)CC3)nc(OCC(F)(F)F)n2)cc1 [Compound 3825] | – | – | EC50 [3]: 0.01 to 10 nM
COCC1(CNC(=O)C(=O)NCC[C@H](NC(=O)c2ccc(Nc3nc(NC4(c5ccc(Cl)cc5)CC4)nc(OCC(F)(F)F)n3)cc2)C(=O)OC)CC1 [Compound 1374] | 0.01 to 10 | – | –
O=C(NCCC(NC(=O)c1ccc(Nc2nc(NC3(c4ccc(Cl)cc4)CC3)nc(OCC(F)(F)F)n2)cc1)C(=O)O)C(=O)Nc1ccc(CN2CCCCC2)cc1 (stereo not shown) [Compound 3534] | – | 0.01 to 10 | EC50 [5]: 7.54 nM
O=C(NC[C@H](NC(=O)c1ccc(Nc2nc(NC3(c4ccc(Cl)cc4)CC3)nc(OCC(F)(F)F)n2)cc1)C(=O)O)C(=O)Nc1ccc(Oc2ccncc2)cc1 [Compound 3289] | – | 0.01 to 10 | EC50 [5]: 2.53 nM
COc1cccc(CNC(=O)C(=O)NCC[C@H](NC(=O)c2ccc(Nc3nc(NC4(c5ccc(Cl)cc5)CC4)nc(OCC(F)(F)F)n3)cc2)C(=O)O)c1 [Compound 1183] | 0.01 to 10 | – | –
CCOc1ccc(NC(=O)C(=O)NCC[C@H](NC(=O)c2ccc(Nc3nc(NC4(c5ccc(Cl)cc5)CC4)nc(OCC(F)(F)F)n3)cc2)C(=O)OC)cc1 [Compound 3327] | – | 0.01 to 10 | –
CC(C)(CNC(=O)C(=O)NC1(c2ccc(F)cc2)CC1)CNC(=O)c1ccc(Nc2nc(NC3(c4ccc(Cl)cc4)CC3)nc(OCC(F)(F)F)n2)cc1 [Compound 3013] | – | 0.01 to 10 | EC50 [5]: 0.066 nM
COC(=O)[C@H](CCNC(=O)C(=O)NCc1ccc(OC)cc1OC)NC(=O)c1ccc(Nc2nc(NC3(c4ccc(Cl)cc4)CC3)nc(OCC(F)(F)F)n2)cc1 [Compound 1147] | 0.01 to 10 | – | –
CNC(=O)C(=O)NCC(NC(=O)c1ccc(Nc2nc(NC3(c4ccc(Cl)cc4)CC3)nc(OCC(F)(F)F)n2)cc1)C(=O)O (stereo in doubt) [Compound 1006, (S)-2-(4-(4-(1-(4-chlorophenyl)cyclopropylamino)-6-(2,2,2-trifluoroethoxy)-1,3,5-triazin-2-ylamino)benzamido)-3-(2-(methylamino)-2-oxoacetamido)propanoic acid] | 0.01 to 10 | – | EC50 [4]: 0.69 nM
COC(=O)[C@H](CCNC(=O)C(=O)NC1CCNC(=O)C1)NC(=O)c1ccc(Nc2nc(NC3(c4ccc(Cl)cc4)CC3)nc(OCC(F)(F)F)n2)cc1 (stereo partly shown) [Compound 1072] | 0.01 to 10 | – | –
CCN(CC)CCOc1cccc(NC(=O)C(=O)NC[C@H](NC(=O)c2ccc(Nc3nc(NC4(c5ccc(Cl)cc5)CC4)nc(OCC(F)(F)F)n3)cc2)C(=O)OC)c1 [Compound 3733] | – | – | EC50 [3]: 0.01 to 10 nM
O=C(NCC[C@H](NC(=O)c1ccc(Nc2nc(NC3(c4ccc(Cl)cc4)CC3)nc(OCC(F)(F)F)n2)cc1)C(=O)O)C(=O)NCC1CCCOC1 (stereo partly shown) [Compound 1208] | 0.01 to 10 | – | EC50 [4]: 0.21 nM
COC(=O)[C@H](CNC(=O)C(=O)NC1CCC(F)(F)CC1)NC(=O)c1ccc(Nc2nc(NC3(c4ccc(Cl)cc4)CC3)nc(OCC(F)(F)F)n2)cc1 [Compound 1057] | 0.01 to 10 | – | –
O=C(Nc1cccc(F)c1)C(=O)N1CCCC(CNC(=O)c2ccc(Nc3nc(NC4(c5ccc(Cl)cc5)CC4)nc(OCC(F)(F)F)n3)cc2)C1 (stereo not shown) [Compound 3479] | – | 0.01 to 10 | –

From patent US8916702B2 (priority 2012, dated 2014)
